Assay results: patent US8044079B2, “Substituted oxindole derivatives, medicaments containing said derivatives and use thereof” (Abbott GmbH & Co. KG, priority 2005, dated 2011)

Each compound was assayed against T1, human vasopressin V1b receptor (Homo sapiens, UniProt P47901) (assay: Vasopressin V1b receptor binding test). Details: membranes of CHO-K1 cells with human V1b receptor, displacement of 1.5 nM 3H-AVP; for compounds with more than one stereogenic center the diastereomer with greater affinity.
T1 construct: expressed in transfected cells; host or cells: CHO-K1 (cell line hV1b_3H2_CHO), membrane preparation
T1 sequence (P47901 1-424): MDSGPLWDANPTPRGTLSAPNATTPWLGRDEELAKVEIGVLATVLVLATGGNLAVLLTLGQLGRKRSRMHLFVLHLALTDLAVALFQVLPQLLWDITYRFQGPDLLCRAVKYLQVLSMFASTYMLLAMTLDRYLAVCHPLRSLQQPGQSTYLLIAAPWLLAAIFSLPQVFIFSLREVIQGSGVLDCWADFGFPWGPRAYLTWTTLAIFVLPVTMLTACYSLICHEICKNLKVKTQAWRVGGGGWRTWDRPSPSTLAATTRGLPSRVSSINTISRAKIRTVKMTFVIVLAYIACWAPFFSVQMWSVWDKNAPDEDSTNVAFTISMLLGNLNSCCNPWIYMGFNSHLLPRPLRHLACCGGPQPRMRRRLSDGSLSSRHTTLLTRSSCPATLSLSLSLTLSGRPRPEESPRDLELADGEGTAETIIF
Summary of the method: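 Radioligand displacement on membranes carrying human V1b receptor in 50 mM tris, 10 mM MgCl2, 0.1% BSA, pH 7.4, 2% DMSO final; 60 min at room temperature, nonspecific binding with 1 μM AVP. Free ligand removed by filtration, bound counted by liquid scintillation, Ki from nonlinear regression of triplicates.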

| Structure (SMILES) | Ki |
| --- | --- |
| COc1ccc(S(=O)(=O)N2C(=O)C(c3cc(CN4CCNCC4)ccc3OC)(N3CCC[C@H]3c3ncco3)c3cc(Cl)c(Cl)cc32)cc1 (stereo partly drawn) [Example 75, 5,6-Dichloro-1-(4-methoxybenzenesulfonyl)-3-(2-methoxy-5-piperazin-1-ylmethylphenyl)-3-((S)-2-oxazol-2-yl-pyrrolidin-1-yl)-1,3-dihydroindol-2-one] | 10 to 100 nM |
| COc1ccc(S(=O)(=O)N2C(=O)C(c3cc(CN4CCCC4)ccc3OC)(N3CCC[C@H]3c3ncco3)c3cc(Cl)c(Cl)cc32)cc1 (stereo partly drawn) [Example 78, 5,6-Dichloro-1-(4-methoxybenzenesulfonyl)-3-(2-methoxy-5-pyrrolidin-1-ylmethylphenyl)-3-((S)-2-oxazol-2-yl-pyrrolidin-1-yl)-1,3-dihydroindol-2-one] | 10 to 100 nM |
| CCOc1ccc(S(=O)(=O)N2C(=O)C(c3cc(CN4CCN(C)CC4)ccc3OC)(N3CCC[C@H]3c3ncco3)c3cc(Cl)ccc32)cc1 (stereo partly drawn) [Example 80, 5-Chloro-1-(4-ethoxybenzenesulfonyl)-3-[2-methoxy-5-(4-methylpiperazin-1-ylmethyl)phenyl]-3-((S)-2-oxazol-2-yl-pyrrolidin-1-yl)-1,3-dihydroindol-2-one] | 10 to 100 nM |
| COc1ccc(CN2CCN(C)CC2)cc1C1(N2CCC[C@H]2c2ncco2)C(=O)N(S(=O)(=O)c2ccc(C#N)cc2)c2ccc(Cl)cc21 (stereo partly drawn) [Example 81, 5-Chloro-1-(4-cyanobenzenesulfonyl)-3-[2-methoxy-5-(4-methylpiperazin-1-ylmethyl)phenyl]-3-((S)-2-oxazol-2-yl-pyrrolidin-1-yl)-1,3-dihydroindol-2-one] | 10 to 100 nM |
| COc1ccc(CN2CCN(C)CC2)cc1C1(N2CCC[C@H]2c2ncco2)C(=O)N(S(=O)(=O)c2ccc(F)cc2)c2ccc(Cl)cc21 (stereo partly drawn) [Example 82, 5-Chloro-1-(4-fluorobenzenesulfonyl)-3-[2-methoxy-5-(4-methylpiperazin-1-ylmethyl)phenyl]-3-((S)-2-oxazol-2-yl-pyrrolidin-1-yl)-1,3-dihydroindol-2-one] | 100 to 1000 nM |
| COc1ccc(CN2CCN(C)CC2)cc1C1(N2CCC[C@H]2c2ncco2)C(=O)N(S(=O)(=O)c2ccccc2)c2ccc(Cl)cc21 (stereo partly drawn) [Example 84, 1-(Benzenesulfonyl)-5-chloro-3-[2-methoxy-5-(4-methylpiperazin-1-ylmethyl)phenyl]-3-((S)-2-oxazol-2-yl-pyrrolidin-1-yl)-1,3-dihydroindol-2-one] | 100 to 1000 nM |
| CCc1ccc(S(=O)(=O)N2C(=O)C(c3cc(CN4CCN(C)CC4)ccc3OC)(N3CCC[C@H]3c3ncco3)c3cc(Cl)ccc32)cc1 (stereo partly drawn) [Example 85, 5-Chloro-1-(4-ethylbenzenesulfonyl)-3-[2-methoxy-5-(4-methylpiperazin-1-ylmethyl)phenyl]-3-((S)-2-oxazol-2-yl-pyrrolidin-1-yl)-1,3-dihydroindol-2-one] | 10 to 100 nM |
| COc1ccc(S(=O)(=O)N2C(=O)C(c3cc(CN4CCN(C)CC4)ccc3OC)(N3CCC[C@H]3c3ncco3)c3cc(Cl)ccc32)c(OC)c1 (stereo partly drawn) [Example 86, 5-Chloro-1-(2,4-dimethoxybenzenesulfonyl)-3-[2-methoxy-5-(4-methylpiperazin-1-ylmethyl)phenyl]-3-((S)-2-oxazol-2-yl-pyrrolidin-1-yl)-1,3-dihydroindol-2-one] | 10 to 100 nM |
| COc1ccc(S(=O)(=O)N2C(=O)C(c3cc(CN4CCN(C)CC4)ccc3OC)(N3CCC[C@H]3c3ncco3)c3cc(Cl)ccc32)cc1F (stereo partly drawn) [Example 87, 5-Chloro-1-(3-fluoro-4-methoxybenzenesulfonyl)-3-[2-methoxy-5-(4-methylpiperazin-1-ylmethyl)phenyl]-3-((S)-2-oxazol-2-yl-pyrrolidin-1-yl)-1,3-dihydroindol-2-one] | 10 to 100 nM |
| COc1ccc(S(=O)(=O)N2C(=O)C(c3cc(CN4CCN(C(C)=O)CC4)ccc3OC)(N3CCC[C@H]3c3ncco3)c3cc(Cl)ccc32)cc1 (stereo partly drawn) [Example 90, 3-[5-(4-Acetylpiperazin-1-ylmethyl)-2-methoxyphenyl]-5-chloro-1-(4-methoxybenzenesulfonyl)-3-((S)-2-oxazol-2-yl-pyrrolidin-1-yl)-1,3-dihydroindol-2-one] | 10 to 100 nM |
| COc1ccc(S(=O)(=O)N2C(=O)C(c3cc(CNCCO)ccc3OC)(N3CCC[C@H]3c3ncco3)c3ccc(Cl)cc32)cc1 (stereo partly drawn) [Example 93, 6-Chloro-3-{5-[(2-hydroxyethylamino)methyl]-2-methoxyphenyl}-1-(4-methoxybenzenesulfonyl)-3-((S)-2-oxazol-2-yl-pyrrolidin-1-yl)-1,3-dihydroindol-2-one] | 100 to 1000 nM |
| COc1ccc(S(=O)(=O)N2C(=O)C(c3cc(CN4CCN(C(C)C)CC4)ccc3OC)(N3CCC[C@H]3c3ncco3)c3cc(C#N)ccc32)cc1 (stereo partly drawn) [Example 94, 5-Cyano-3-[5-(4-isopropylpiperazin-1-ylmethyl)-2-methoxyphenyl]-1-(4-methoxybenzenesulfonyl)-3-((S)-2-oxazol-2-yl-pyrrolidin-1-yl)-1,3-dihydroindol-2-one] | 10 to 100 nM |
| COc1ccc(S(=O)(=O)N2C(=O)C(c3cc(CN4CCN(C(C)=O)CC4)ccc3OC)(N3CCC[C@H]3c3ncco3)c3cc(C#N)ccc32)cc1 (stereo partly drawn) [Example 95, 5-Cyano-3-[5-(4-acetylpiperazin-1-ylmethyl)-2-methoxyphenyl]-1-(4-methoxybenzenesulfonyl)-3-((S)-2-oxazol-2-yl-pyrrolidin-1-yl)-1,3-dihydroindol-2-one] | 10 to 100 nM |

Now from value to compound:

| Ki | Structure (SMILES) |
| --- | --- |
| 10 to 100 nM | COc1ccc(S(=O)(=O)N2C(=O)C(c3cc(CN(C)C)ccc3OC)(N3CCC[C@H]3c3ncco3)c3cc(Cl)c(Cl)cc32)cc1 (stereo partly drawn) [Example 64, 5,6-Dichloro-3-(5-dimethylaminomethyl-2-methoxyphenyl)-1-(4-methoxybenzenesulfonyl)-3-((S)-2-oxazol-2-yl-pyrrolidin-1-yl)-1,3-dihydroindol-2-one] |
| 10 to 100 nM | CCNCc1ccc(OC)c(C2(N3CCC[C@H]3c3ncco3)C(=O)N(S(=O)(=O)c3ccc(OC)cc3)c3cc(Cl)c(Cl)cc32)c1 (stereo partly drawn) [Example 65, 5,6-Dichloro-3-(5-ethylaminomethyl-2-methoxyphenyl)-1-(4-methoxybenzenesulfonyl)-3-((S)-2-oxazol-2-yl-pyrrolidin-1-yl)-1,3-dihydroindol-2-one] |
| 10 to 100 nM | CCCNCc1ccc(OC)c(C2(N3CCC[C@H]3c3ncco3)C(=O)N(S(=O)(=O)c3ccc(OC)cc3)c3cc(Cl)c(Cl)cc32)c1 (stereo partly drawn) [Example 68, 5,6-Dichloro-1-(4-methoxybenzenesulfonyl)-3-(2-methoxy-5-propylaminomethylphenyl)-3-((S)-2-oxazol-2-yl-pyrrolidin-1-yl)-1,3-dihydroindol-2-one] |
| 10 to 100 nM | COc1ccc(S(=O)(=O)N2C(=O)C(c3cc(CNC(C)C)ccc3OC)(N3CCC[C@H]3c3ncco3)c3cc(Cl)c(Cl)cc32)cc1 (stereo partly drawn) [Example 70, 5,6-Dichloro-3-[5-(isopropylaminomethyl)-2-methoxyphenyl]-1-(4-methoxybenzenesulfonyl)-3-((S)-2-oxazol-2-yl-pyrrolidin-1-yl)-1,3-dihydroindol-2-one] |
| 10 to 100 nM | COc1ccc(S(=O)(=O)N2C(=O)C(c3cc(CN4CCN(C)CC4)ccc3OC)(N3CCC[C@H]3c3ncco3)c3cc(Cl)c(Cl)cc32)cc1 (stereo partly drawn) [Example 74, 5,6-Dichloro-1-(4-methoxybenzenesulfonyl)-3-[2-methoxy-5-(4-methylpiperazin-1-ylmethyl)phenyl]-3-((S)-2-oxazol-2-yl-pyrrolidin-1-yl)-1,3-dihydroindol-2-one] |
| < 10 nM | CCN1CCN(Cc2ccc(OC)c(C3(N4CCC[C@H]4c4ncco4)C(=O)N(S(=O)(=O)c4ccc(OC)cc4)c4ccc(Cl)cc43)c2)CC1 (stereo partly drawn) [Example 88, 5-Chloro-3-[5-(4-ethylpiperazin-1-ylmethyl)-2-methoxyphenyl]-1-(4-methoxybenzenesulfonyl)-3-((S)-2-oxazol-2-yl-pyrrolidin-1-yl)-1,3-dihydroindol-2-one] |
| < 10 nM | COc1ccc(S(=O)(=O)N2C(=O)C(c3cc(CN4CCN(C(C)C)CC4)ccc3OC)(N3CCC[C@H]3c3ncco3)c3cc(Cl)ccc32)cc1 (stereo partly drawn) [Example 89, 5-Chloro-3-[5-(4-isopropylpiperazin-1-ylmethyl)-2-methoxyphenyl]-1-(4-methoxybenzenesulfonyl)-3-((S)-2-oxazol-2-yl-pyrrolidin-1-yl)-1,3-dihydroindol-2-one] |
| < 10 nM | COc1ccc(S(=O)(=O)N2C(=O)C(c3cc(CN4CCCN(C)CC4)ccc3OC)(N3CCC[C@H]3c3ncco3)c3cc(Cl)ccc32)cc1 (stereo partly drawn) [Example 91, 5-Chloro-1-(4-methoxybenzenesulfonyl)-3-[2-methoxy-5-(4-methyl-[1,4]diazepan-1-ylmethyl)phenyl]-3-((S)-2-oxazol-2-yl-pyrrolidin-1-yl)-1,3-dihydroindol-2-one] |
| < 10 nM | COc1ccc(S(=O)(=O)N2C(=O)C(c3cc(CN4CCN(CCO)CC4)ccc3OC)(N3CCC[C@H]3c3ncco3)c3cc(Cl)ccc32)cc1 (stereo partly drawn) [Example 92, 5-Chloro-3-{5-[4-(2-hydroxyethyl)piperazin-1-ylmethyl]-2-methoxyphenyl}-1-(4-methoxybenzenesulfonyl)-3-((S)-2-oxazol-2-yl-pyrrolidin-1-yl)-1,3-dihydroindol-2-one] |
